Experimental data as given in patent US20120009257A1 (priority 2009, published 2012).

Key:
[1] = Bioequivalence study of fixed combination versus free combination, plasma PK by LC/MS/MS; type: in vivo, healthy subjects
Description: Pharmacokinetic measurements were performed on blood collected from each subject. […] The PK parameters were determined in plasma, using non-compartmental methods.
AUC0-tlast: Area under the concentration-time curve from time zero to time tlast, where tlast is the last time point with measurable concentration (ng hr/ml).
AUC0-inf: Area under the plasma concentration-time curve from time zero to infinity (ng hr/ml).
Cmax: Maximum (peak) plasma concentration (ng/ml).
Tmax: Time to reach peak or maximum concentration (hr).
T1/2: Elimination half-life associated with the terminal slope (E) of a semilogarithmic concentration-time curve (hr).

[2] = drug substance; cited from earlier work

Structure (SMILES)	intra-subject coefficient of variation (CV) for AUC0-inf ([1]; aliskiren) [%]	intra-subject coefficient of variation (CV) for AUC0-tlast ([1]; aliskiren) [%]	intra-subject coefficient of variation (CV) for Cmax ([1]; aliskiren) [%]	hygroscopicity [2]	intra-subject CV for AUC0-inf ([1]; valsartan) [%]	intra-subject CV for AUC0-tlast ([1]; valsartan) [%]	intra-subject CV for Cmax ([1]; valsartan) [%]
COCCCOc1cc(C[C@@H](C[C@H](N)[C@@H](O)C[C@H](C(=O)NCC(C)(C)C(N)=O)C(C)C)C(C)C)ccc1OC [Aliskiren, 2(S),4(S),5(S),7(S)—N-(3-amino-2,2-dimethyl-3-oxopropyl)-2,7-di(1-methylethyl)-4-hydroxy-5-amino-8-[4-methoxy-3-(3-methoxy-propoxy)phenyl]-octanamide]	33.19	33.98	51.90	highly hygroscopic			
CCCCC(=O)N(Cc1ccc(-c2ccccc2-c2nnn[nH]2)cc1)[C@H](C(=O)O)C(C)C [Valsartan]					28.33	28.56	40.37
